Values of other authors as cited in patent US10545077B2, “Solid phase microextraction coating” (JP SCIENTIFIC LIMITED, priority 2016, dated 2020).

In order of rising LogP:
1. C[C@]12C=CC(=O)C=C1CC[C@@H]1[C@@H]2[C@@H](O)C[C@@]2(C)[C@H]1CC[C@]2(O)C(=O)CO [Prednisolone]  1.66
2. CC(C)NCC(O)COc1ccc(COCCOC(C)C)cc1 (stereo not drawn) [Bisoprolol]  1.87
3. CCCC1O[C@@H]2C[C@H]3[C@@H]4CCC5=CC(=O)C=C[C@]5(C)[C@H]4[C@@H](O)C[C@]3(C)[C@]2(C(=O)CO)O1 (stereo partly drawn) [Budesonide]  2.42
